Results taken from patent publication US11974969B2, “Artificially synthesized sphingosine derivative lipoid monomer and use of same for delivering nucleic acid” (INSTITUTE OF BASIC MEDICAL SCIENCES CHINESE ACADEMY OF …, priority 2018, dated 2024).

Test system: HEK293T cells
Experiment: Flow cytometry (CFlow): delivery of FAM-labeled single-stranded PGY-sRNA-6 into HEK293T cells by different concentrations of single sphingosine derivative (Example 1)
Format: cell-based, human
Conditions: for delivery of single-stranded PGY-sRNA-6 into 293T cells (fluorescence shift compared to free uptake group): different concentrations: 3.75, 12.5, 37.5 μg single lipid, 0.1 nmol FAM-labeled sRNA, final 100 nM, 9 hours, flow cytometry; for Lipid delivery group (different concentrations of lipids) 3.75 μg/mL: single sphingosine derivative 3.75 μg/mL; for Lipid delivery group (different concentrations of lipids) 3.75 μg/mL / Lipid delivery group (different concentrations of lipids) 12.5 μg/mL / Lipid delivery group (different concentrations of lipids) 37.5 μg/mL: FAM-labeled PGY-ssRNA-6 100 nM, 293T cells, fluorescence shift by flow cytometry; for Lipid delivery group (different concentrations of lipids) 12.5 μg/mL: single sphingosine derivative 12.5 μg/mL; for Lipid delivery group (different concentrations of lipids) 37.5 μg/mL: single sphingosine derivative 37.5 μg/mL
Protocol: 2.1 5 μl of small RNA (Ribobio, 20 μM, as shown in Table 2) and 95 μL of DEPC (Sigma) treated water were added into a 1.5 ml EP tube and mixed well. Then a certain amount of single lipid or lipid composition in chloroform solution (as shown in Table 1) was added and fully mixed by sucking and blowing;
2.2 The system was fully mixed and was heated in a water bath at 90° C. for 15 minutes;
2.3 The system was taken out and cooled down to room temperature.
4.3 The human embryonic kidney cell line HEK293T and human monocyte THP-1 cells used in the experiment were cultured to logarithmic growth phase, and then plated into 12-well plates with a cell density of 6×10^5/1 mL medium/well. The 12-well plate (1 mL medium/well) was incubated overnight (12 h) at 37° C., followed by subsequent experiments.
4.4 The experiment groups were as follows: • 1) Naïve group: untreated cells. This group served as a blank control group. • 2) Free uptake group: […] of 5′-FAM labeled small RNA solution (storage concentration is 20 μM) was directly added. This group served as a negative control group; • 3) Lipid nucleic acid mixture treatment group: The mixture of the lipid prepared in step 2 and the 5′-FAM-labeled small RNA was added into the cells and mixed well. The final concentration of small RNA is 100 nM.
4.5 After co-incubation with cells for 6 h/9 h, the cells were washed three times with PBS. The cells were re-suspended with PBS (self-prepared). The flow cytometer Accuri® C6 instrument (purchased from BD, US) was used to detect the fluorescence intensity of the cells in the sample wells. Implementation method: the software CFlow Plus used in the flow cytometer Accuri® C6 instrument detection was opened, the instrument was washed with cleaning solution for 3 minutes, and then washed with double-distilled water for 5 minutes. The injection of blank group samples was started while setting the number of cells unlimited. The injection of Naïve group samples was stopped when the number of cells detected was 10000 events. The live cell group in the fluorescence spectrum (abscissa: FSC-A, ordinate: SSC-A) was circled as gate P1. With the number of cells set as limited, the detection was stopped when the number of cells in gate P1 reached 10000 events. The fluorescence shift value was obtained in the fluorescence spectrum (abscissa: fluorescence channel FLA-1, ordinate: SSC-A).
1) Conditions of the boiling method: to 100 μL FAM-labeled single-stranded PGY-sRNA-6 solution was added corresponding amount of lipid solution, and heated at 90° C. for 15 min;
2) Experimental conditions: the final concentration of small RNA was 100 nM. 9 hours after being added to the cells, the amount of single-stranded PGY-sRNA-6 that entered into the cells was compared by detecting the fluorescence shift using flow cytometry technology. For the detailed protocols, see “Flow cytometry technology (CFlow) determined the uptake amount of nucleic acid that is delivered into cells by lipid”. All experiments were performed in triplicates.

Row | SMILES | delivery of single-stranded PGY-sRNA-6 into 293T cells (fluorescence shift compared to free uptake group) | Lipid delivery group (different concentrations of lipids) 3.75 μg/mL [%] | Lipid delivery group (different concentrations of lipids) 12.5 μg/mL [%] | Lipid delivery group (different concentrations of lipids) 37.5 μg/mL [%]
1 | CCCCCCCCCCCCC/C=C/[C@@H](O)[C@H](CO)NC(=O)CCCCCCCCCCCCCC [So-64, N-[(1S,2R,3E)-2-hydroxy-1-(hydroxymethyl)-3-heptadecen-1-yl]-pentadecanamide] | deliver | 7.40 | 6.20 | 8.70
2 | CCCCCCCCCC/C=C/[C@@H](O)[C@@H](N)CO [So-73, 2S-amino-4E-pentadecene-1,3R-diol] | deliver | 3.20 | 4.60 | 9.50
3 | CCCCCCCCCCCCC/C=C/[C@@H](O)[C@H](CO)NC(=O)CCCCCCCCCCCCCCCCCCCCCCCCCCCCCO [So-14, ω-hydroxy-C30 Sphingosine (d18:1/30:0)] | deliver | 4.40 | 3.30 | 4.30
4 | CCCCCCCCCCCCC/C=C/[C@@H](O)[C@H](CO)N(C)C [So-4, N,N-Dimethylsphingosine (d18:1)] | deliver | 1.70 | 2.20 | 0.00
5 | CCCCCCCCCCCCCCCCCC(=O)N[C@@H](CO)[C@H](O)CCCCCCCCCCCCCCC [So-9, N-octadecanoyl-D-erythro-Dihydrosphingosine] | deliver | 3.30 | 2.60 | 2.70
6 | CCCCCCCCCCCCCCC[C@@H](O)[C@H](CO)N(C)C [So-11, N,N-dimethyl-D-erythro-Dihydrosphingosine] | deliver | 3.60 | 7.40 | 12.70
7 | CCCCCCCCCCCCCCCC(=O)N[C@@H](CO)[C@H](O)[C@H](O)CCCCCCCCCCCCCC [So-68, N-[(1S,2S,3R)-2,3-dihydroxy-1-(hydroxymethyl)heptadecyl]-hexadecanamide] | deliver | 4.80 | 3.80 | 3.90
8 | CCCCCCCCCCCCCCC[C@@H](O)[C@H](CO)NC(=O)CCCCCCC [So-12, N-octanoyl-D-erythro-Dihydrosphingosine] | deliver | 5.60 | 2.30 | 1.60
9 | CCCCCCCCCCCCC/C=C/[C@@H](O)[C@@H](N)CO [So-26, D-erythro-Sphingosine C-18] | deliver | 0.20 | 3.80 | 0.50
10 | CCCCCCCCCCCCC/C=C/[C@@H](O)[C@H](CO[C@@H]1O[C@H](CO)[C@H](O)[C@H](O)[C@H]1O)NC(=O)CCCCCCCCCCCCCC [So-61, N-[(1S,2R,3E)-1-[(β-D-galactopyranosyloxy)methy1]-2-hydroxy-3-heptadecen-1-yl]-pentadecanamide] | deliver | 7.40 | 8.10 | 7.00
11 | CCCCCCCCCCCCC/C=C/[C@@H](O)[C@H](CO)NC(=O)CCCCCCCCCCCCCCCCCC [So-65, N-[(1S,2R,3E)-2-hydroxy-1-(hydroxymethyl)-3-heptadecen-1-yl]-nonadecanamide] | deliver | 7.60 | 7.50 | 6.80
12 | CCC/C=C\CCCCCCCCCC[C@@H](O)[C@H](C)N [So-7, 14Z-1-Deoxysphingosine (d18:1)] | deliver | 1.20 | 0.20 | 4.30
13 | CCCCCCCCCCCCC/C=C/[C@@H](O)[C@H](CO)NC(=O)CCCCCCCCCCC [So-13, N-Lauroyl-D-erythro-Sphingosine] | deliver | 3.40 | 3.20 | 5.20
14 | CCCCCCCCCCCCC/C=C/[C@@H](O)[C@@H](N)CO[C@@H]1OC(CO)[C@@H](O)C(O)C1O (stereo partly drawn) [So-66, D-glucosyl-β1-1′-D-erythro-sphingosine] | deliver | 7.10 | 18.10 | 29.50
15 | CCCCCCCCCCCCC/C=C/[C@@H](O)[C@@H](N)COP(=O)(O)O [So-5, Sphingosine-1-Phosphoric Acid] | deliver | 2.80 | 1.60 | 2.40
16 | CCCCCCCCCCCCCCCCC(=O)N[C@@H](CO)[C@H](O)CCCCCCCCCCCCCCC [So-1, N-heptadecanoyl-D-erythro-Dihydrosphingosine] | deliver | 1.60 | 1.50 | 1.40
